{"source": "patent US11781955B2", "about": "“Photo-controlled removal of targets in vitro and in vivo” (The United States of America, as represented by the …, priority 2014, dated 2023)", "key": {"[1]": {"type": "physicochemical", "procedure": "The resulting solution was run on a 4-20% polyacrylamide gel, and stained with Comassie blue and visualized with light or fluorescence at 700 nm. Some samples were not exposed to NIR light. […] Some examples contained NaN3 (sodium azide), a reactive oxygen scavenger, or no oxygen (using an argon gas flash for 20 minutes). The resulting solution was run on a […] gel, and stained with Comassie blue and visualized with light or fluorescence at 700 nm. Some samples were not exposed to NIR light. […] Some examples contained excess oxygen (using 100% oxygen gas flash for 20 minutes). The resulting solution was run on a 4-20% SDS-PAGE gel, and stained with Comassie blue and visualized with light or fluorescence at 700 nm. Some samples were not exposed to NIR light."}, "[2]": {"test_system": "A431-luc-GFP cells", "assay": "Flow cytometry binding to A431-luc-GFP cells with blocking", "conditions": "6 hr incubation at 37° C., blocking study", "procedure": "(§1) Fluorescence arising from the cells after incubation with APC agents was measured using a flow cytometer (FACS Calibur, BD BioSciences, San Jose, CA, USA) and CellQuest software (BD BioSciences). Cells (1×10^5) were incubated with each APC for 6 hr at 37° C."}, "[3]": {"test_system": "Balb/3T3-RFP cells", "assay": "Flow cytometry binding to Balb/3T3-RFP cells", "conditions": "non-EGFR expressing cells", "procedure": "as §1"}, "[4]": {"test_system": "A431-luc-GFP cells", "assay": "In vitro PIT on 2D culture (PI staining, luciferase activity, GFP fluorescence)", "type": "cell-based", "procedure": "(§2) To detect the antigen specific localization of IR700 conjugates, fluorescence microscopy was performed (IX61 or IX81; Olympus America, Melville, NY, USA). Ten thousand cells were seeded on cover-glass-bottomed dishes and incubated for 24 hr. APC was then added to the culture medium at 10 μg/mL and incubated at 37° C. for 6 hr. The cells were then washed with PBS; Propidium Iodide (PI)(1:2000)(Life Technologies) and Cytox Blue (1:500)(Life Technologies), were used to detect dead cells. These were added to the media 30 min before observation. The cells were then exposed to NIR light and serial images were obtained. The filter was set to detect IR700 fluorescence with a 590-650 nm excitation filter, and a 665-740 nm band pass emission filter.\n(§3) Two hundred thousand A431-luc-GFP cells were seeded into 24 well plates or twenty million cells were seeded onto a 10 cm dish and incubated for 24 hr. Medium was replaced with fresh culture medium containing 10 μg/mL of tra-IR700 which was incubated for 6 hr at 37° C. After washing with PBS, phenol red free culture medium was added. Then, cells were irradiated with a NIR laser, which emits light at 670 to 710 nm wavelength (L690-66-60; Marubeni America Co., Santa Clara, CA, USA). The actual power density (mW/cm2) was measured with an optical power meter (PM 100, Thorlabs, Newton, NJ, USA).\n(§4) The cytotoxic effects of PIT with APC were determined by the luciferase activity and flow cytometric PI staining or GFP. For luciferase activity, 150 μg/mL of D-luciferin-containing media (Gold Biotechnology, St Louis, MO, USA) was administered to PBS-washed cells 1 hr after PIT, and analyzed on a bioluminescence imaging (BLI) system (Photon Imager; Biospace Lab, Paris, France). […]\n(§5) Two hundred thousand cells were seeded on cover-glass-bottomed dishes and incubated for 12 hr. […] The GFP/RFP intensity was evaluated with total pixels with the same threshold in the same field of each spheroid20. […] Fluorescence from treated cells was also measured using a flow cytometer (FACS Calibur)."}, "[5]": {"test_system": "A431-luc-GFP 3D spheroids", "type": "cell-based", "procedure": "(§6) Spheroids were generated by the hanging drop method in which five thousand cells were suspended in 50 μL medium and then were dispensed into 96 well plates (3D Biomatrix Inc, Ann Arbor, MI, USA) following manufacturer's instructions (Sato et al., Mol. Oncol. 8, 620-632, 2014). Mixed spheroids were made with 5,000 cells of Balb/3T3-RFP and 500 cells of A431-luc-GFP (100:10)). After observation or treatment, spheroids were again incubated with the hanging drop plates containing new media. The volume of the spheroids was calculated with the formula: spheroid volume=4/3 π×radius^3\nas §2\n3D reconstructions of the spheroids were obtained with a confocal laser microscope (LSM5 meta, Carl Zeiss, Jena, Germany) after incubation for 30 min with Hoechst 33342 (1:500)(Life Technologies). Sections of spheroids were first fixed with 3.7% formaldehyde in PBS for 10 min at room temperature followed by embedding with OCT (SAKURA, Tokyo, Japan). Then, they were frozen at −80° C., and sliced at 10 μm with a cryotome (LEICA CM3050 S, Leica microsystems, Wetzlar, Germany). Analysis of the images was performed with ImageJ software (http://rsb.info.nih.gov/ij/)."}, "[6]": {"test_system": "A431-luc-GFP flank tumor", "assay": "In vivo PIT on flank tumor", "design": "species or system mouse", "conditions": "100 μg, repeated PIT 50 J/cm2 day 1 and 100 J/cm2 day 2", "procedure": "All in vivo procedures were conducted in compliance with the Guide for the Care and Use of Laboratory Animal Resources (1996), US National Research Council, and approved by the local Animal Care and Use Committee. Six- to eight-week-old female homozygote athymic nude mice were purchased from Charles River (NCI-Frederick). During procedures, mice were anesthetized with isoflurane.\nFour million A431-luc-GFP cells were injected subcutaneously in both (right and left symmetrically) flanks of the mice, for the monoculture tumor model. […]\nControls included (1) only NIR light exposure at 50 J/cm2 on day 1 and 100 J/cm2 on day 2 to the right tumor; (2) no treatment for the left tumor. […] Mice were monitored daily, and serial image analysis was performed.\nIn vivo fluorescence images were obtained with a Pearl Imager (LI-COR Bioscience) for detecting IR700 fluorescence, and a Maestro Imager (CRi, Woburn, MA, USA) for GFP/RFP. […] The spectral fluorescence images consist of autofluorescence spectra and the spectra from GFP/RFP (tumor), which were then unmixed, based on the characteristic spectral pattern of GFP, using Maestro software (CRi). Regions of interest (ROIs) were manually drawn either on the flank tumor or over the abdominal region as appropriate to the model and fluorescence intensity was measured. […]"}, "[7]": {"test_system": "A431-luc-GFP cells", "assay": "PIT on mixed 2D cell culture, target cells", "type": "cell-based", "conditions": "mixed 2D culture, repeated PIT 2 J/cm2", "procedure": "as §3\nas §4, with “France). For the flow cytometric assay, cells were trypsinized 1 hr after treatment and washed with PBS.” for “France).”\nas §5"}, "[8]": {"test_system": "Balb/3T3-RFP cells", "assay": "PIT on mixed 2D cell culture, non-target cells", "type": "cell-based", "conditions": "mixed 2D culture, repeated PIT 2 J/cm2", "procedure": "as §3\nas §4, with “France). For the flow cytometric assay, cells were trypsinized 1 hr after treatment and washed with PBS.” for “France).”\nas §5"}, "[9]": {"test_system": "A431-luc-GFP cells", "assay": "PIT on mixed 3D spheroid, target cells", "type": "cell-based", "conditions": "repeated PIT 2 J/cm2", "procedure": "as §6, §2"}, "[10]": {"test_system": "Balb/3T3-RFP cells", "assay": "PIT on 3D spheroids, non-target cells", "type": "cell-based", "procedure": "as §6, §2"}, "[11]": {"test_system": "A431-luc-GFP cells", "assay": "In vivo PIT on mixed flank tumor, target cells", "design": "species or system mouse", "conditions": "repeated PIT", "procedure": "(§7) Four million A431-luc-GFP cells were injected subcutaneously in both (right and left symmetrically) flanks of the mice, for the monoculture tumor model. For the mixed tumor model, mixed cells of 4×10^6 A431-luc-GFP cells and 4×10^5 Balb/3T3-RFP cells (100:10) were injected subcutaneously in the both (right and left symmetrically) flanks.\n(§8) Controls included (1) only NIR light exposure at 50 J/cm2 on day 1 and 100 J/cm2 on day 2 to the right tumor; (2) no treatment for the left tumor. These therapies were performed only once at day 7 after cell implantation. Mice were monitored daily, and serial image analysis was performed.\n(§9) In vivo fluorescence images were obtained with a Pearl Imager (LI-COR Bioscience) for detecting IR700 fluorescence, and a Maestro Imager (CRi, Woburn, MA, USA) for GFP/RFP. […] The spectral fluorescence images consist of autofluorescence spectra and the spectra from GFP/RFP (tumor), which were then unmixed, based on the characteristic spectral pattern of GFP, using Maestro software (CRi). Regions of interest (ROIs) were manually drawn either on the flank tumor or over the abdominal region as appropriate to the model and fluorescence intensity was measured.\n(§10) For BLI, D-luciferin (15 mg/mL, 200 μL) was injected intraperitoneally and the mice were analyzed with a Photon Imager for luciferase activity at day 6. […]"}, "[12]": {"test_system": "Balb/3T3-RFP cells", "assay": "In vivo PIT on mixed flank tumor, non-target cells", "design": "species or system mouse", "conditions": "repeated PIT", "procedure": "as §7, §8, §9, §10"}, "[13]": {"conditions": "cited from earlier work"}, "[14]": {"assay": "IR700 fluorescence after NIR light exposure", "type": "physicochemical", "conditions": "0.5 μM in DMF or PBS, laser 2-16 J/cm^2", "procedure": "IR700 (0.5 μM) was suspended in DMF or PBS and exposed to NIR light with a laser (690 nm+/−4) at 2, 4, 8 or 16 J/cm^2. The resulting solution was visualized (in an eppendorf tube) with fluorescence at 700 nm. Some samples were not exposed to NIR light."}, "[15]": {"assay": "Solubility of silicon phthalocyanines", "type": "physicochemical", "conditions": "prior to exposure to NIR light (FIG. 5)"}, "[16]": {"conditions": "variety of solvents, including water; cited from earlier work"}}, "note": "Where two headings read alike, the source gives them in different places.", "data": [{"molecule": "Pan-IR700: Panitumumab (Vectibix), anti-human EGFR IgG2 MAb, conjugated to IR700; about 3 IR700 per antibody", "values": [{"measurement": "degradation by NIR in excess oxygen", "setting": "[1]", "result": "less degradation"}, {"measurement": "oxygen dependence of cleavage by NIR", "setting": "[1]; 8 or 16 J/cm^2, no treatment, NaN3 or no oxygen (argon)", "result": "oxygen independent"}, {"measurement": "cleavage of conjugate after NIR light", "setting": "[1]; PBS, LED or laser 690 nm, 2-16 J/cm^2", "result": "broken down or cleaved after exposure to NIR light"}, {"measurement": "binding to cells (FACS)", "setting": "[2]", "result": "Specific binding"}, {"measurement": "binding to cells (FACS)", "setting": "[3]", "result": "no binding"}, {"measurement": "bioluminescence (BLI) and GFP fluorescence intensity after PIT", "setting": "[4]; 2D culture, 1 hr after PIT", "result": "decrease in bioluminescence (BLI) and GFP fluorescence intensity also in a light-dose dependent manner"}, {"measurement": "cell killing (dead PI staining)", "setting": "[4]; 2D culture, NIR light dose series", "result": "killed in a light-dose dependent manner"}, {"measurement": "cell death by microscopy", "setting": "[4]; 6 hr incubation, NIR 2 J/cm2, 1 hr after PIT", "result": "Necrotic cell death was observed"}, {"measurement": "permeation into spheroids (IR700 fluorescence)", "setting": "[5]", "result": "gradually permeated into spheroids from the perimeter"}, {"measurement": "eradication of cells in 3D spheroid", "setting": "[5]; daily repeated PIT", "result": "complete eradication of A431-luc-GFP cells within spheroids"}, {"measurement": "cell death in 3D spheroid after PIT", "setting": "[5]; single PIT, 2 J/cm2", "result": "necrotic cell death in the APC-bound layer of A431-luc-GFP cells"}, {"measurement": "spheroid size after PIT", "setting": "[5]; target 3D spheroid", "result": "clearly decreased in size"}, {"measurement": "GFP signal and luciferase activity of tumor", "setting": "[6]", "result": "disappearance of both GFP signal and luciferase activity"}, {"measurement": "target cell elimination", "setting": "[7]", "result": "complete target cell elimination"}, {"measurement": "effect on non-target cells", "setting": "[8]", "result": "without affecting the non-target cell growth"}, {"measurement": "target cell elimination", "setting": "[9]", "result": "complete target cell elimination from the mixed 3D cell culture"}, {"measurement": "effect on non-target cells", "setting": "[10]; mixed 3D spheroid, repeated PIT 2 J/cm2", "result": "without damaging non-target cells"}, {"measurement": "change of non-target-expressing 3D spheroid with PIT", "setting": "[10]; spheroid of non-target cells only", "result": "no remarkable change"}, {"measurement": "target cell elimination from mixed tumors", "setting": "[11]", "result": "complete elimination of target-expressing cells from mixed tumors in vivo"}, {"measurement": "damage to non-target cells in mixed tumors", "setting": "[12]", "result": "minimal damage to non-target cells"}]}, {"molecule": "Oc1cccc(-c2c3nc(c(-c4cccc(O)c4)c4ccc([nH]4)c(-c4cccc(O)c4)c4nc(c(-c5cccc(O)c5)c5ccc2[nH]5)CC4)C=C3)c1", "note": "[Foscan®, meta-tetrahydroxyphenylchlorin]", "values": [{"measurement": "extinction coefficient", "setting": "[13]; at 652 nm", "result": 22000, "unit": "M⁻¹ cm⁻¹"}]}, {"molecule": "Photofrin®", "values": [{"measurement": "extinction coefficient", "setting": "[13]; at 630 nm", "result": 1200, "unit": "M⁻¹ cm⁻¹"}]}, {"molecule": "IRDye® 700DX [IR700]", "values": [{"measurement": "fluorescence after NIR exposure (photobleaching)", "setting": "[14]", "result": "still fluorescent even after exposure to strong NIR light"}, {"measurement": "solubility", "setting": "[15]", "result": "can dissolve in different aqueous and organic solvents"}, {"measurement": "extinction coefficient", "setting": "[13]; at the absorption maximum of 689 nm", "result": 210000, "unit": "M⁻¹ cm⁻¹"}]}, {"molecule": "O[Si]1(O)n2c3c4ccccc4c2N=C2N=C(N=c4c5ccccc5c(n41)=NC1=NC(=N3)c3ccccc31)c1ccccc12", "note": "[silicon phthalocyanine dihydroxide]", "values": [{"measurement": "solubility", "setting": "[16]", "result": "no measurable solubility"}]}, {"molecule": "C=Cc1c(C)c2cc3nc(c(CC(=O)N[C@@H](CC(=O)[O-])C(=O)[O-])c4[nH]c(cc5nc(cc1[nH]2)C(C)=C5CC)c(C)c4C(=O)[O-])[C@@H](CCC(=O)[O-])[C@@H]3C.[Na+].[Na+].[Na+].[Na+]", "note": "[NPe6/Laserphyrin®, mono-L-aspartylchlorin e6]", "values": [{"measurement": "extinction coefficient", "setting": "[13]; at 654 nm", "result": 40000, "unit": "M⁻¹ cm⁻¹"}]}]}
